Results on three compounds are retold here after patent US5317039A, “Cyclopropyl-alanine aryl/alkylsulfide/sulfonyl-terminated amino-diol compounds for treatment of hypertension” (G. D. Searle & Co., priority 1992, dated 1994).

As a reminder, the IC50 is the concentration that gives 50% inhibition.

One experiment addresses T1, human renin (Homo sapiens, UniProt P00797).
T1 construct: purchased National Institute for Biological Standards, London
T1 sequence (P00797 67-406): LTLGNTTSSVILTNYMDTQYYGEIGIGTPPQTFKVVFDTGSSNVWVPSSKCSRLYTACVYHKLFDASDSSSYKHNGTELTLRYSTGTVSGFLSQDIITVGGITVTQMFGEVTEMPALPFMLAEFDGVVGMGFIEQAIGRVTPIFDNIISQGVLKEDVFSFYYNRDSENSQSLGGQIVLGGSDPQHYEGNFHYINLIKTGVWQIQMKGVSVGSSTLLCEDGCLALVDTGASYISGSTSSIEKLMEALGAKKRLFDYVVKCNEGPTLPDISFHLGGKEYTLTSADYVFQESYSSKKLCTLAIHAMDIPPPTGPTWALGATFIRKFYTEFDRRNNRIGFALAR
Kind of experiment: Human Renin Inhibition in vitro. The format is biochemical. Conditions: pH 7.4, 2 h at 37° C., human plasma, angiotensin I by radioimmunoassay. As to the method:
Compounds of Formula I were evaluated as inhibitors of human renin in an in vitro assay, as follows: This human renin inhibition test has been previously described in detail [Papaioannou et al., Clinical and Experimental Hypertension, A7(9), 1243-1257 (1985)]. Human renin was obtained from the National Institute for Biological Standards, London. An incubation mixture was prepared containing the following components: in a total volume of 0.25 mL: 100 mM Tris-acetate buffer at pH 7.4, 25×10^-6 Goldblatt units of renin, 0.05 mL of plasma from human volunteers taking oral contraceptives, 6.0 mM Na-EDTA, 2.4 mM phenylmethyl sulfonyl fluoride, 1.5 mM 8-hydroxyquinoline, 0.4 mg/mL bovine serum albumin (BSA), and 0.024 mg/mL neomycin sulfate. This mixture was incubated for two hours at 37° C. in the presence or absence of renin inhibitors. The produced angiotensin I was determined by radioimmunoassay (New England Nuclear kit). Test compounds to be assayed were dissolved in DMSO and diluted with 100 mM Tris-acetate buffer at pH 7.4 containing 0.5% BSA to the appropriate concentration. The final concentration of organic solvent in the reaction mixture was less than 1%. Control incubations at 37° C. were used to correct for effects of organic solvent on renin activity.

The subject of the next experiment is cathepsin D. Conditions: cited from earlier work.
Another experiment relates to pepsin. Particulars: cited from earlier work.
The subject of a further experiment is renin. Particulars: cited from earlier work.
The test system of a further experiment is hog renin. Conditions: nephrectomized rats, after injection of hog renin; cited from earlier work.

Square brackets hold non-standard residues; d marks the D form. Peptide text beside a SMILES is read from it. * marks the point of attachment. Sta = CC(C)C[C@H](N)[C@@H](O)CC(=O)O; Isovaleryl = CC(C)CC(=O)*

With `CC(C)C[C@H](O)[C@H](O)[C@H](CC1CCCCC1)NC(=O)[C@H](CC1CC1)NC(=O)C(Cc1ccccc1)CS(=O)(=O)C(C)(C)C` (stereo partly drawn) [Example 1], the concentration for half-maximal inhibition (IC50) against human renin amounted to 0.3 nM.
Turning to `CC(C)C[C@H](O)[C@H](O)[C@H](CC1CCCCC1)NC(=O)[C@H](CC1CC1)NC(=O)C(CSC(C)(C)C)Cc1ccccc1` (stereo partly drawn) [Example 2], half-maximal inhibition against human renin (IC50) was put at 2.7 nM.
For the compound `CC(C)CC(=O)N[C@H](C(=O)N[C@H](C(=O)N[C@@H](CC(C)C)[C@@H](O)CC(=O)N[C@@H](C)C(=O)N[C@@H](CC(C)C)[C@@H](O)CC(=O)O)C(C)C)C(C)C` [pepstatin] (Isovaleryl-VV[Sta]A[Sta]-OH), the “inhibitor of cathepsin D” value in the experiment on cathepsin D is “inhibitor”. Also, in the experiment with pepsin, the inhibitor of pepsin result is reported as “inhibitor”. The inhibitor of renin entry in the experiment with renin was “inhibitor”. For the same compound, in the experiment with hog renin, the “reduce blood pressure in vivo” value is listed as “reduce blood pressure in vivo”.
